Data: PMC6691788, “Design and synthesis of phthalazine-based compounds as potent anticancer agents with potential antiangiogenic activity via VEGFR-2 inhibition” (Journal of Enzyme Inhibition and Medicinal Chemistry, 2019)

Assays:
MDA-MB 231/ATCC = assay: NCI 60 cell panel SRB screen; assay type: cell-based; conditions: Homo sapiens; for activity at 10 µM: MDA-MB-231, read-out: percent cell growth promotion
MCF7 = assay: NCI 60 cell panel SRB screen; assay type: cell-based; conditions: Homo sapiens; for activity at 10 µM: MCF7, read-out: percent cell growth promotion
T-47D = assay: NCI 60 cell panel SRB screen; assay type: cell-based; conditions: Homo sapiens, T47D; for activity at 10 µM: read-out: percent cell growth promotion
CAKI-1 = assay: NCI 60 cell panel SRB screen; assay type: cell-based, human; conditions: Homo sapiens; CAKI-1, single dose 10 μM; read-out: percent cell growth promotion
K-562 = assay: NCI 60 cell panel SRB screen; assay type: cell-based; conditions: Homo sapiens, K562; for activity at 10 µM: K-562, single dose 10 μM, read-out: percent cell growth promotion
MOLT-4 = assay: NCI 60 cell panel SRB screen; assay type: cell-based; conditions: Homo sapiens; for activity at 10 µM: MOLT-4, single dose 10 μM, read-out: percent cell growth promotion
DU-145 = assay: NCI 60 cell panel SRB screen; assay type: cell-based; conditions: Homo sapiens; for activity at 10 µM: DU-145, single dose 10 μM, read-out: percent cell growth promotion
NCI-H522 = assay: NCI 60 cell panel SRB screen; assay type: cell-based; conditions: Homo sapiens; for activity at 10 µM: NCI-H522, single dose 10 μM, read-out: percent cell growth promotion
HT29 = assay: NCI 60 cell panel SRB screen; assay type: cell-based; conditions: Homo sapiens, HT-29; for activity at 10 µM: HT29, single dose 10 μM, read-out: percent cell growth promotion
HL-60(TB) = assay: NCI 60 cell panel SRB screen; assay type: cell-based; conditions: Homo sapiens; for activity at 10 µM: single dose 10 μM, read-out: percent cell growth promotion
BT-549 = assay: NCI 60 cell panel SRB screen; assay type: cell-based; conditions: Homo sapiens; for activity at 10 µM: BT-549, read-out: percent cell growth promotion
UACC-257 = assay: NCI 60 cell panel SRB screen; assay type: cell-based; conditions: Homo sapiens; for activity at 10 µM: UACC-257, read-out: percent cell growth promotion
IGROV1 = assay: NCI 60 cell panel SRB screen; assay type: cell-based; conditions: Homo sapiens, IGROV-1; for activity at 10 µM: IGROV1, single dose 10 μM, read-out: percent cell growth promotion
OVCAR-3 = assay: NCI 60 cell panel SRB screen; assay type: cell-based; conditions: Homo sapiens; for activity at 10 µM: OVCAR-3, single dose 10 μM, read-out: percent cell growth promotion
MDA-MB-435 = assay: NCI 60 cell panel SRB screen; assay type: cell-based; conditions: Homo sapiens; for activity at 10 µM: MDA-MB-435, read-out: percent cell growth promotion
VEGFR-2 tyrosine kinase = target: T1, VEGFR-2 tyrosine kinase (Homo sapiens, UniProt P35968); assay: In vitro VEGFR-2 tyrosine kinase assay (BPS Bioscience); assay type: biochemical; conditions: read-out: VEGFR-2 % inhibition; 10 μM concentration
T1 construct: purchased BPS Bioscience 40301
T1 sequence (P35968 20-1356): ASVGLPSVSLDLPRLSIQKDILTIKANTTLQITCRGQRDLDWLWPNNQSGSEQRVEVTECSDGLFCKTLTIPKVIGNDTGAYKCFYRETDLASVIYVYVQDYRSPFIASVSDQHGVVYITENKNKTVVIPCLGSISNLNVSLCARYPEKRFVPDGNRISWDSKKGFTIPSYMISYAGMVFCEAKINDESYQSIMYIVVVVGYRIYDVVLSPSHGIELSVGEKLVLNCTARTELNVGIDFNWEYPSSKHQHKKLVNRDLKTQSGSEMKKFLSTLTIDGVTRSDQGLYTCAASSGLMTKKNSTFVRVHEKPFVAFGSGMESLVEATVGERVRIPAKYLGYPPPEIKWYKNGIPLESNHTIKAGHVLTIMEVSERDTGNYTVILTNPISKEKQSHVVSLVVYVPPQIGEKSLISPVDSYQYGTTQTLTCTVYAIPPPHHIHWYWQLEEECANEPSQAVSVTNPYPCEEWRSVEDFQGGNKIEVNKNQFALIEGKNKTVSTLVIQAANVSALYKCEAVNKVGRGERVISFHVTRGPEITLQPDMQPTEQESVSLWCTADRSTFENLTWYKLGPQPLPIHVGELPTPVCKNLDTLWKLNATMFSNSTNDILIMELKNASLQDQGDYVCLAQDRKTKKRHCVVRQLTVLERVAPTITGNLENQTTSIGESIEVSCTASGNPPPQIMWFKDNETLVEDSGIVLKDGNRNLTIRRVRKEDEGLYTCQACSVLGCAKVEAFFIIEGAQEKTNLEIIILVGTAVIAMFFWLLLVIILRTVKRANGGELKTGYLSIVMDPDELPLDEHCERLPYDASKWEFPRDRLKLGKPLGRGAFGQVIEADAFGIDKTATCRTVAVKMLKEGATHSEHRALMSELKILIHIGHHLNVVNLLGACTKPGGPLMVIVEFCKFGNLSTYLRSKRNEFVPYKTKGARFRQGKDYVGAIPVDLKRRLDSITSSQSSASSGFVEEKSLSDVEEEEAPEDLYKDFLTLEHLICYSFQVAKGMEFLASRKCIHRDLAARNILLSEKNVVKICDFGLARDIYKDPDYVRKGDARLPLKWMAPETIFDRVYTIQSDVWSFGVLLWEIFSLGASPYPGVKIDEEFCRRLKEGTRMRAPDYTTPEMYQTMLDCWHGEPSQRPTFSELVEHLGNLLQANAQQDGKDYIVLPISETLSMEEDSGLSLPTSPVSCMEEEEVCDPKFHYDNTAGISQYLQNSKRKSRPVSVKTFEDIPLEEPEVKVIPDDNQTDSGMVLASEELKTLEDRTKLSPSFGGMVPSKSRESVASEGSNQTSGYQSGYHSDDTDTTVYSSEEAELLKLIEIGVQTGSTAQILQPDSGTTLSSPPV
Procedure: The VEGFR tyrosine kinase assays were performed at BPS Bioscience (www.bpsbioscience.com). All the synthesised compounds representing the six series were evaluated for their ability to inhibit VEGFR-2 tyrosine kinase at single dose of 10 µM.
The VEGFR tyrosine kinase activity at single dose concentration of 10 μM was carried out by BPS Bioscience (www.bpsbioscience.com). VEGFR (BPS#40301) served as the enzyme source and Poly (Glu, Tyr) sodium salt, (4:1, Glu:Tyr) (Sigma#P7244) served as the standardized substrate & Kinase-Glo Plus Luminescence kinase assay kit (Promega#V3772). The IC50 determination was carried out where quality control testing is routinely performed on each of the targets to insure compliance to acceptable standards. ^33P-ATP was purchased from Perkin Elmer and ADP-Glo^TM was purchased from Promega. All other materials were of standard laboratory grade.
The VEGFR tyrosine kinase activity was performed using Kinase-Glo Plus luminescence kinase assay kit (Promega). It measures kinase activity by quantitating the amount of ATP remaining in solution following a kinase reaction. The luminescent signal from the assay is correlated with the amount of ATP present and is inversely correlated with the amount of kinase activity. The compounds were diluted to 100 μM in 10% DMSO and […] of the dilution was added to a […] reaction so that the final concentration of DMSO is 1% in all of reactions. All of the enzymatic reactions were conducted at 30 °C for 40 min. The 50 μl reaction mixture contains […], pH 7.4, […], 0.1 mg/ml BSA, 0.2 mg/ml Poly (Glu, Tyr) substrate, 10 μM ATP and VEGFR. After the enzymatic reaction, […] of Kinase-GloPlus Luminescence kinase assay solution (Promega) was added to each reaction and incubate the plate for 5 min at room temperature. Luminescence signal was measured using a BioTek Synergy 2 microplate reader. The protein kinase assays used to determine IC50 value were performed using ADP-GloTM assay kit from Promega which measures the generation of ADP by the protein kinase. Generation of ADP by the protein kinase reaction leads to an increase in luminescence signal in the presence of ADP-GloTM assay kit. The assay was started by incubating the reaction mixture in a 96-well plate at 30 °C for 30 min. After the 30 min incubation period, the assay was terminated by the addition of […] of ADP-GloTM Reagent (Promega). The 96 well plate was shaken and then incubated for 40 min at ambient temperature. […] of Kinase detection reagent was added, the 96-well reaction plate was then read using the ADP-Glo Luminescences Protocol on a GloMax plate reader (Promega: Catalog #E7031). Blank control was set up that included all the assay components except the addition of appropriate substrate (replace with equal volume of kinase assay buffer). The corrected activity for each protein kinase target was determined by removing the blank control value.
VEGFR activity assays were performed in duplicate at each concentration. The luminescence data were analyzed using the computer software, Graphpad Prism. The difference between luminescence intensities in the absence of VEGFR (Lut) and in the presence of VEGFR (Luc) was defined as 100% activity (Lut - Luc). […] IC50 determination for inhibitor against VEGFR was estimated by generating a graph of log inhibitor vs normalized response with variable using the Prism software.

Clc1ccc(Nc2nnc(CNc3ccccc3)c3ccccc23)cc1 [Compound 16a, N-(4-Chlorophenyl)-4-((phenylamino)methyl)phthalazin-1-amine]
GI50 (MDA-MB 231/ATCC; MDA-MB-231): 1.95 µM
IC (TGI) (MDA-MB 231/ATCC; MDA-MB-231, read-out: TGI): 8.73 µM
activity at 10 µM (MDA-MB 231/ATCC): 19.9%
CC50 (MDA-MB 231/ATCC; MDA-MB-231, MDA-MDA 231/ATCC, 5 log dose, 48 h, read-out: LC50 (the source's name)): > 25 µM
IC (TGI) (MCF7; MCF7, read-out: TGI): 11.1 µM
activity at 10 µM (MCF7): 9.2%
CC50 (MCF7; MCF7, 5 log dose, 48 h, read-out: LC50 (the source's name)): > 25 µM
GI50 (T-47D): 1.17 µM
IC (TGI) (T-47D; read-out: TGI): 8.28 µM
activity at 10 µM (T-47D): 2.82%
CC50 (T-47D; T-47D, 5 log dose, 48 h, read-out: LC50 (the source's name)): > 25 µM
activity at 10 µM (CAKI-1): 28.2%
GI50 (K-562; K-562, 5 log dose): 1.71 µM
IC (TGI) (K-562; K-562, 5 log dose): 14.5 µM
CC50 (K-562; K-562, 5 log dose, 48 h, read-out: LC50 (the source's name)): > 25 µM
activity at 10 µM (K-562): 5.39%
GI50 (MOLT-4; MOLT-4, 5 log dose): 1.71 µM
IC (TGI) (MOLT-4; MOLT-4, 5 log dose): 8.75 µM
CC50 (MOLT-4; MOLT-4, 5 log dose, 48 h, read-out: LC50 (the source's name)): > 25 µM
activity at 10 µM (MOLT-4): -9.21%
GI50 (DU-145; DU-145, 5 log dose): > 25 µM
IC (TGI) (DU-145; DU-145, 5 log dose): > 25 µM
CC50 (DU-145; DU-145, 5 log dose, 48 h, read-out: LC50 (the source's name)): > 25 µM
activity at 10 µM (DU-145): 19%
GI50 (NCI-H522; NCI-H522, 5 log dose): 0.68 µM
IC (TGI) (NCI-H522; NCI-H522, 5 log dose): 4.62 µM
CC50 (NCI-H522; NCI-H522, 5 log dose, 48 h, read-out: LC50 (the source's name)): 18.5 µM
activity at 10 µM (NCI-H522): -5.92%
GI50 (HT29; HT29, 5 log dose): 1.46 µM
IC (TGI) (HT29; HT29, 5 log dose): 6.36 µM
CC50 (HT29; HT29, 5 log dose, 48 h, read-out: LC50 (the source's name)): 21.2 µM
activity at 10 µM (HT29): 0.55%
GI50 (HL-60(TB); 5 log dose): 3.71 µM
IC (TGI) (HL-60(TB); 5 log dose): 13 µM
CC50 (HL-60(TB); 5 log dose, 48 h, read-out: LC50 (the source's name)): > 25 µM
activity at 10 µM (HL-60(TB)): -13.3%
GI50 (BT-549; BT-549): 2.93 µM
IC (TGI) (BT-549; BT-549, read-out: TGI): 8.2 µM
activity at 10 µM (BT-549): 4.94%
CC50 (BT-549; BT-549, 5 log dose, 48 h, read-out: LC50 (the source's name)): 22.9 µM
GI50 (UACC-257; UACC-257): 2.74 µM
IC (TGI) (UACC-257; UACC-257, read-out: TGI): 6.87 µM
activity at 10 µM (UACC-257): -6.49%
CC50 (UACC-257; UACC-257, 5 log dose, 48 h, read-out: LC50 (the source's name)): 17.2 µM
GI50 (IGROV1; IGROV1, 5 log dose): 1.93 µM
IC (TGI) (IGROV1; IGROV1, 5 log dose): 10.7 µM
CC50 (IGROV1; IGROV1, 5 log dose, 48 h, read-out: LC50 (the source's name)): > 25 µM
activity at 10 µM (IGROV1): 19.1%
GI50 (OVCAR-3; OVCAR-3, 5 log dose): 3.51 µM
IC (TGI) (OVCAR-3; OVCAR-3, 5 log dose): 8.69 µM
CC50 (OVCAR-3; OVCAR-3, 5 log dose, 48 h, read-out: LC50 (the source's name)): 21.5 µM
activity at 10 µM (OVCAR-3): -1.64%
GI50 (MDA-MB-435; MDA-MB-435): 1.47 µM
IC (TGI) (MDA-MB-435; MDA-MB-435, read-out: TGI): 7.88 µM
activity at 10 µM (MDA-MB-435): 4.17%
CC50 (MDA-MB-435; MDA-MB-435, 5 log dose, 48 h, read-out: LC50 (the source's name)): > 25 µM
inhibition at 10 µM (VEGFR-2 tyrosine kinase): 47%

CCOC(=O)N1CCN(c2nncc3ccccc23)CC1 [Compound 8a, Ethyl 4-(phthalazin-1-yl)piperazine-1-carboxylate]
activity at 10 µM (MDA-MB 231/ATCC): 108%
activity at 10 µM (MCF7): 103%
activity at 10 µM (T-47D): 100%
activity at 10 µM (CAKI-1): 96.1%
activity at 10 µM (K-562): 110%
activity at 10 µM (MOLT-4): 98.6%
activity at 10 µM (DU-145): 104%
activity at 10 µM (NCI-H522): 99.8%
activity at 10 µM (HT29): 106%
activity at 10 µM (HL-60(TB)): 108%
activity at 10 µM (BT-549): 112%
activity at 10 µM (UACC-257): 95.8%
activity at 10 µM (IGROV1): 120%
activity at 10 µM (OVCAR-3): 105%
activity at 10 µM (MDA-MB-435): 105%
inhibition at 10 µM (VEGFR-2 tyrosine kinase): 13%
